Assay results reported in PubChem BioAssay (NCI).
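A five-concentration, 48-hour dose response in 96-well plates underlies each endpoint, interpolated linearly between surrounding concentrations. The concentration for full growth arrest is given as TGI.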

Legend:
Test in all cases: NCI tumour cell line growth inhibition, 48 h
TK-10 renal = test system: TK-10 renal
SK-MEL-28 melanoma = test system: SK-MEL-28 melanoma
LXFL 529 NSCLC = test system: LXFL 529 NSCLC
HT29 colon = test system: HT29 colon
LOX IMVI melanoma = test system: LOX IMVI melanoma
OVCAR-3 ovarian = test system: OVCAR-3 ovarian
DLD-1 colon = test system: DLD-1 colon
ACHN renal = test system: ACHN renal
RXF 393 renal = test system: RXF 393 renal
SW-620 colon = test system: SW-620 colon
DMS 273 small cell lung = test system: DMS 273 small cell lung
SF-268 CNS = test system: SF-268 CNS
RXF-631 renal = test system: RXF-631 renal
HCT-15 colon = test system: HCT-15 colon
OVCAR-8 ovarian = test system: OVCAR-8 ovarian
K-562 leukemia = test system: K-562 leukemia
EKVX NSCLC = test system: EKVX NSCLC
HOP-62 NSCLC = test system: HOP-62 NSCLC
HCC-2998 colon = test system: HCC-2998 colon
OVCAR-4 ovarian = test system: OVCAR-4 ovarian
SNB-19 CNS = test system: SNB-19 CNS
NCI-H23 lung = test system: NCI-H23 lung
M19-MEL melanoma = test system: M19-MEL melanoma
M14 melanoma = test system: M14 melanoma
HOP-92 NSCLC = test system: HOP-92 NSCLC
SN12C renal = test system: SN12C renal
SK-OV-3 ovarian = test system: SK-OV-3 ovarian
NCI-H460 lung = test system: NCI-H460 lung
786-0 renal = test system: 786-0 renal
SNB-75 CNS = test system: SNB-75 CNS
COLO 205 colon = test system: COLO 205 colon
HL-60(TB) leukemia = test system: HL-60(TB) leukemia
A549 NSCLC = test system: A549 NSCLC
SK-MEL-2 melanoma = test system: SK-MEL-2 melanoma
HCT-116 colon = test system: HCT-116 colon
UACC-62 melanoma = test system: UACC-62 melanoma
NCI-H226 lung = test system: NCI-H226 lung
MOLT-4 leukemia = test system: MOLT-4 leukemia
UACC-257 melanoma = test system: UACC-257 melanoma
KM12 colon = test system: KM12 colon
A498 renal = test system: A498 renal
DMS 114 small cell lung = test system: DMS 114 small cell lung
MALME-3M melanoma = test system: MALME-3M melanoma
SF-295 CNS = test system: SF-295 CNS
XF 498 CNS = test system: XF 498 CNS
NCI-H522 lung = test system: NCI-H522 lung
SK-MEL-5 melanoma = test system: SK-MEL-5 melanoma
IGROV1 ovarian = test system: IGROV1 ovarian
SR leukemia = test system: SR leukemia
OVCAR-5 ovarian = test system: OVCAR-5 ovarian
SNB-78 CNS = test system: SNB-78 CNS
U251 CNS = test system: U251 CNS
SF-539 CNS = test system: SF-539 CNS
CCRF-CEM leukemia = test system: CCRF-CEM leukemia
RPMI-8226 leukemia = test system: RPMI-8226 leukemia
UO-31 renal = test system: UO-31 renal
HOP-18 NSCLC = test system: HOP-18 NSCLC
KM20L2 colon = test system: KM20L2 colon

Measured: TGI

COc1ccc(OCC(=O)O)c(C(=O)CCC(=O)O)c1
> 10 µM: OVCAR-3 ovarian | HOP-62 NSCLC | M14 melanoma | UACC-62 melanoma
not listed: HOP-18 NSCLC | KM20L2 colon
> 100 µM: all other assays above

CC(=O)C1=C(O)CC2CC3c4[nH]c5ccccc5c4CCN3CC2C1 (centres undefined)
58.5 µM: SR leukemia
87.7 µM: CCRF-CEM leukemia
70.6 µM: MOLT-4 leukemia
82.3 µM: RXF 393 renal
not listed: RXF-631 renal | M19-MEL melanoma | HOP-92 NSCLC | UACC-62 melanoma | RPMI-8226 leukemia
> 100 µM: all other assays above
